Calls of active or inactive are those of the source. The rule behind the calls is not given here.
Test system: CCRIS mutagenicity, Ames/micronucleus/aberration tests
Experiment: CCRIS mutagenicity studies
[1] = Test System: AMES SALMONELLA TYPHIMURIUM, Strain/Indicator: TA98, Metabolic Activation: NONE, Method: STANDARD PLATE
[2] = Test System: AMES SALMONELLA TYPHIMURIUM, Strain/Indicator: TA98, Metabolic Activation: RAT, LIVER, S-9, AROCLOR 1254, Method: STANDARD PLATE
[3] = Test System: AMES SALMONELLA TYPHIMURIUM, Strain/Indicator: TA100, Metabolic Activation: NONE, Method: STANDARD PLATE
[4] = Test System: AMES SALMONELLA TYPHIMURIUM, Strain/Indicator: TA100, Metabolic Activation: RAT, LIVER, S-9, AROCLOR 1254, Method: STANDARD PLATE
[5] = Test System: AMES SALMONELLA TYPHIMURIUM, Strain/Indicator: TA97, Metabolic Activation: NONE, Method: STANDARD PLATE
[6] = Test System: AMES SALMONELLA TYPHIMURIUM, Strain/Indicator: TA97, Metabolic Activation: RAT, LIVER, S-9, AROCLOR 1254, Method: STANDARD PLATE
[7] = Test System: AMES SALMONELLA TYPHIMURIUM, Strain/Indicator: TA100, Metabolic Activation: NONE, Method: PREINCUBATION

Measured: mutagenic call

O=c1[nH][nH]c2ccccc12
inactive: Test System: AMES SALMONELLA TYPHIMURIUM, Strain/Indicator: TA98, Metabolic Activation: HAMSTER, LIVER, S-9, AROCLOR 1254, Method: STANDARD PLATE inactive; negative | [1] inactive; negative | [2] inactive; negative | Test System: AMES SALMONELLA TYPHIMURIUM, Strain/Indicator: TA100, Metabolic Activation: HAMSTER, LIVER, S-9, AROCLOR 1254, Method: STANDARD PLATE inactive; negative | [3] inactive; negative | [4] inactive; negative | Test System: AMES SALMONELLA TYPHIMURIUM, Strain/Indicator: TA1535, Metabolic Activation: HAMSTER, LIVER, S-9, AROCLOR 1254, Method: STANDARD PLATE inactive; negative | Test System: AMES SALMONELLA TYPHIMURIUM, Strain/Indicator: TA1535, Metabolic Activation: NONE, Method: STANDARD PLATE inactive; negative | Test System: AMES SALMONELLA TYPHIMURIUM, Strain/Indicator: TA1535, Metabolic Activation: RAT, LIVER, S-9, AROCLOR 1254, Method: STANDARD PLATE inactive; negative | Test System: AMES SALMONELLA TYPHIMURIUM, Strain/Indicator: TA1537, Metabolic Activation: HAMSTER, LIVER, S-9, AROCLOR 1254, Method: STANDARD PLATE inactive; negative | Test System: AMES SALMONELLA TYPHIMURIUM, Strain/Indicator: TA1537, Metabolic Activation: NONE, Method: STANDARD PLATE inactive; negative | Test System: AMES SALMONELLA TYPHIMURIUM, Strain/Indicator: TA1537, Metabolic Activation: RAT, LIVER, S-9, AROCLOR 1254, Method: STANDARD PLATE inactive; negative | Test System: AMES SALMONELLA TYPHIMURIUM, Strain/Indicator: TA1538, Metabolic Activation: HAMSTER, LIVER, S-9, AROCLOR 1254, Method: STANDARD PLATE inactive; negative | Test System: AMES SALMONELLA TYPHIMURIUM, Strain/Indicator: TA1538, Metabolic Activation: NONE, Method: STANDARD PLATE inactive; negative | Test System: AMES SALMONELLA TYPHIMURIUM, Strain/Indicator: TA1538, Metabolic Activation: RAT, LIVER, S-9, AROCLOR 1254, Method: STANDARD PLATE inactive; negative | Test System: MOUSE LYMPHOMA, Strain/Indicator: L5178Y (TK+/TK-), Metabolic Activation: RAT, LIVER, S-9, AROCLOR 1254, Method: SUSPENSION/PLATE inactive; negative. reevaluation of results: negative
active: Test System: MOUSE LYMPHOMA, Strain/Indicator: L5178Y (TK+/TK-), Metabolic Activation: NONE, Method: SUSPENSION/PLATE active; positive. reevaluation of results: positive

Br/C=C/Br
inactive: [5] inactive; negative | Test System: AMES SALMONELLA TYPHIMURIUM, Strain/Indicator: TA104, Metabolic Activation: NONE, Method: STANDARD PLATE inactive; negative
active: [6] active; positive | [1] active; positive | [2] active; positive | [3] active; positive | [4] active; positive | Test System: AMES SALMONELLA TYPHIMURIUM, Strain/Indicator: TA104, Metabolic Activation: RAT, LIVER, S-9, AROCLOR 1254, Method: STANDARD PLATE active; positive

O=C(c1ccccc1)N(O)c1ccc2c(c1)Cc1ccccc1-2
active: [2] active; positive

CCOC(C)(C)C
inactive: Test System: AMES SALMONELLA TYPHIMURIUM, Strain/Indicator: TA97, Metabolic Activation: HAMSTER, LIVER, S-9, AROCLOR 1254 (10 OR 30%), Method: PREINCUBATION inactive; negative | Test System: AMES SALMONELLA TYPHIMURIUM, Strain/Indicator: TA97, Metabolic Activation: NONE, Method: PREINCUBATION inactive; negative | Test System: AMES SALMONELLA TYPHIMURIUM, Strain/Indicator: TA97, Metabolic Activation: RAT, LIVER, S-9, AROCLOR 1254 (10 OR 30%), Method: PREINCUBATION inactive; negative | Test System: AMES SALMONELLA TYPHIMURIUM, Strain/Indicator: TA98, Metabolic Activation: HAMSTER, LIVER, S-9, AROCLOR 1254 (10 OR 30%), Method: PREINCUBATION inactive; negative | Test System: AMES SALMONELLA TYPHIMURIUM, Strain/Indicator: TA98, Metabolic Activation: NONE, Method: PREINCUBATION inactive; negative | Test System: AMES SALMONELLA TYPHIMURIUM, Strain/Indicator: TA98, Metabolic Activation: RAT, LIVER, S-9, AROCLOR 1254 (10 OR 30%), Method: PREINCUBATION inactive; negative | Test System: AMES SALMONELLA TYPHIMURIUM, Strain/Indicator: TA100, Metabolic Activation: HAMSTER, LIVER, S-9, AROCLOR 1254 (10 OR 30%), Method: PREINCUBATION inactive; negative | [7] inactive; negative | Test System: AMES SALMONELLA TYPHIMURIUM, Strain/Indicator: TA100, Metabolic Activation: RAT, LIVER, S-9, AROCLOR 1254 (10 OR 30%), Method: PREINCUBATION inactive; negative | Test System: AMES SALMONELLA TYPHIMURIUM, Strain/Indicator: TA1535, Metabolic Activation: HAMSTER, LIVER, S-9, AROCLOR 1254 (10 OR 30%), Method: PREINCUBATION inactive; negative | Test System: AMES SALMONELLA TYPHIMURIUM, Strain/Indicator: TA1535, Metabolic Activation: NONE, Method: PREINCUBATION inactive; negative | Test System: AMES SALMONELLA TYPHIMURIUM, Strain/Indicator: TA1535, Metabolic Activation: RAT, LIVER, S-9, AROCLOR 1254 (10 OR 30%), Method: PREINCUBATION inactive; negative

COC1=CC(=O)c2c(nc(C)c3c2[nH]c2ccccc23)C1=O
active: [5] active; positive | [6] active; positive | Test System: AMES SALMONELLA TYPHIMURIUM, Strain/Indicator: TA97A, Metabolic Activation: NONE, Method: STANDARD PLATE active; positive | Test System: AMES SALMONELLA TYPHIMURIUM, Strain/Indicator: TA97A, Metabolic Activation: RAT LIVER S-9, AROCLOR 1254, Method: STANDARD PLATE active; positive | [1] active; positive | Test System: AMES SALMONELLA TYPHIMURIUM, Strain/Indicator: TA98, Metabolic Activation: RAT LIVER S-9, AROCLOR 1254, Method: STANDARD PLATE active; positive | [2] active; positive | [3] active; positive | Test System: AMES SALMONELLA TYPHIMURIUM, Strain/Indicator: TA100, Metabolic Activation: RAT LIVER S-9, AROCLOR 1254, Method: STANDARD PLATE active; positive | [4] active; positive
inactive: Test System: AMES SALMONELLA TYPHIMURIUM, Strain/Indicator: TA102, Metabolic Activation: RAT LIVER S-9, AROCLOR 1254, Method: STANDARD PLATE inactive; negative | Test System: AMES SALMONELLA TYPHIMURIUM, Strain/Indicator: TA102, Metabolic Activation: RAT, LIVER, S-9, AROCLOR 1254, Method: STANDARD PLATE inactive; negative

CC1(c2ccccc2)CO1 (stereo unspecified)
active: [7] active; positive

Cc1cc2c3ccccc3ccc2c2ccccc12
inactive: Test System: AMES SALMONELLA TYPHIMURIUM, Strain/Indicator: TA98, Metabolic Activation: RAT, LIVER, CYTOSOL, AROCLOR 1254, Method: STANDARD PLATE inactive; negative | Test System: AMES SALMONELLA TYPHIMURIUM, Strain/Indicator: TA98, Metabolic Activation: RAT, LIVER, MICROSOMES, AROCLOR 1254, Method: STANDARD PLATE inactive; negative | Test System: AMES SALMONELLA TYPHIMURIUM, Strain/Indicator: TA100, Metabolic Activation: RAT, LIVER, MICROSOMES, 6-METHYLCHRYSENE, Method: STANDARD PLATE inactive; negative | Test System: AMES SALMONELLA TYPHIMURIUM, Strain/Indicator: TA100, Metabolic Activation: RAT, LIVER, MICROSOMES, AROCLOR 1254, Method: STANDARD PLATE inactive; negative | Test System: AMES SALMONELLA TYPHIMURIUM, Strain/Indicator: TA100, Metabolic Activation: RAT, LIVER, MICROSOMES, Method: STANDARD PLATE inactive; negative

— PubChem BioAssay AID1259407 (Chemical Carcinogenesis Research Information System (CCRIS), 2018)
